Experimental data reported in patent US20050070595A1, “Trioxane derivatives as antimalaria or anticancer compounds” (priority 2001, published 2005).
Where “and” joins values, the source holds several entries; their conditions need not be identical. Equal values may be shown once. Read-outs that look alike come from different tables or passages of the source.

Test system: chloroquine-resistant K1 strain of P. falciparum
Experiment: 48-h sensitivity assay, [3H]-hypoxanthine incorporation as an assessment of parasite growth
Assay type: cell-based
Method: The antimalarial activity of the new dimers was tested against the chloroquine-resistant K1 strain of P. falciparum. A single uncloned K1, chloroquine resistant strain of P. falciparum from Thailand was used. Parasites were maintained in continuous culture using the method of Trager and Jenson. (J. Parasitol, 1977, 63, […]). Cultures were grown in flasks containing human erythrocytes (2-5%) with parasitemia in the range of 1% to 10% suspended in RPMI 1640 medium supplemented with 25 mM HEPES and 32 mM NaHCO3, and 10% human serum (complete medium). Cultures were gassed with a mixture of 3% O2, 4% CO2 and 93% N2.
Antimalarial activity was assessed with an adaption of the 48-h sensitivity assay of Desjardins et al. (Antimicrob. Agents. Chemother., 1979, 16, 710-718) using [^3H]-hypoxanthine incorporation as an assessment of parasite growth. Stock drug solutions were prepared in 100% dimethylsulphoxide (DMSO) and diluted to the appropriate concentration using complete medium. Assays were performed in sterile 96-well microtitre plates, each plate containing 200 μl of parasite culture (2% parasitemia, 0.5% haematocrit) with or without 10 μl drug dilutions. Each drag was tested in triplicate and parasite growth was compared to control wells (which constituted 100% parasite growth). After 24-h incubation at 37° C., 0.5 μCi hypoxanthine was added to each well. Cultures were incubated for a further 24 h before they were harvested onto filter-mats, dried for 1 h at 55° C. and counted using a Wallac 1450 Microbeta Trilux Liquid scintillation and luminescence counter. IC50 values were calculated by interpolation of the probit transformation of the log dose—response curve.

[1] = mean of the determinations, K1 strain, 48 h, read-out: Mean IC50
[2] = Plasmodium falciparum, K1, 48 h, mean of the determinations, K1 strain, 48 h, read-out: Mean IC50
[3] = single determinations (triplicate), K1 strain, 48 h, read-out: IC50

Molecule	IC50 [1] [nM]	IC50 [3]	further results
C[C@H]1[C@@H](CCOCc2cccc(COCC[C@H]3O[C@@H]4O[C@]5(C)CC[C@H]6[C@H](C)CC[C@@H]([C@H]3C)[C@@]46OO5)c2)O[C@@H]2O[C@]3(C)CC[C@H]4[C@H](C)CC[C@@H]1[C@@]24OO3 [PV43]	2.9	–	–
C[C@@H]1CC[C@H]2[C@@H](C)C(=O)O[C@@H]3O[C@@]4(C)CC[C@@H]1[C@]32OO4 [Artemisinin, reference compound]	–	–	IC50 [2]: 12.3 nM; IC50 (Plasmodium falciparum, K1, 48 h, single determinations (triplicate), K1 strain, 48 h, read-out: IC50): 12.3 nM
C[C@H]1[C@@H](CCOC(=O)c2ccc(C(=O)OCC[C@H]3O[C@@H]4O[C@]5(C)CC[C@H]6[C@H](C)CC[C@@H]([C@H]3C)[C@@]46OO5)cc2)O[C@@H]2O[C@]3(C)CC[C@H]4[C@H](C)CC[C@@H]1[C@@]24OO3 [PV32, 10-β-(2-Hydroxyethyl)-deoxoartemisinin bis-ester(1,4)-dimer]	4.6	5.5 nM and 5.2 nM and 3 nM	–
C[C@H]1[C@@H](CCOCc2ccc(COCC[C@H]3O[C@@H]4O[C@]5(C)CC[C@H]6[C@H](C)CC[C@@H]([C@H]3C)[C@@]46OO5)cc2)O[C@@H]2O[C@]3(C)CC[C@H]4[C@H](C)CC[C@@H]1[C@@]24OO3 [PV41]	2.4	2.6 nM and 3.1 nM and 1.6 nM	–
C[C@H]1[C@@H](CCOC(=O)CCC(=O)OCC[C@H]2O[C@@H]3O[C@]4(C)CC[C@H]5[C@H](C)CC[C@@H]([C@H]2C)[C@@]35OO4)O[C@@H]2O[C@]3(C)CC[C@H]4[C@H](C)CC[C@@H]1[C@@]24OO3 [PV33]	1.8	–	–
CCN(CC)CCCC(C)Nc1ccnc2cc(Cl)ccc12 (stereo not shown) [Chloroquine, chloroquine, reference compound]	–	–	IC50 (Plasmodium falciparum, K1, 48 h): 190 nM; IC50 (Plasmodium falciparum, K1, 48 h, read-out: Mean IC50): 190 nM
CC1CCC2C(C)C(CCOC(=O)CCCC(=O)OCCC3OC4OC5(C)CCC6C(C)CCC(C3C)C46OO5)OC3OC4(C)CCC1C32OO4 (stereo not shown) [PV35]	2.4	2.6 nM and 3.1 nM and 1.6 nM	–
C[C@H]1[C@@H](CCOC(=O)c2cccc(C(=O)OCC[C@H]3O[C@@H]4O[C@]5(C)CC[C@H]6[C@H](C)CC[C@@H]([C@H]3C)[C@@]46OO5)c2)O[C@@H]2O[C@]3(C)CC[C@H]4[C@H](C)CC[C@@H]1[C@@]24OO3 [PV31, 10β-(2-hydroxyethyl)-deoxoartemisininbis-ester(1,3)-dimer]	42.2	39.9 nM and 43.3 nM	–
CC1CCC2C(C)C(CCOP(=O)(OCCC3OC4OC5(C)CCC6C(C)CCC(C3C)C46OO5)Oc3ccccc3)OC3OC4(C)CCC1C32OO4 (stereo not shown) [PV37]	0.5	–	–
CO[C@H]1O[C@@H]2O[C@@]3(C)CC[C@H]4[C@H](C)CC[C@@H]([C@H]1C)[C@@]24OO3 [Artemether, artemether, reference compound]	–	2 nM	IC50 [2]: 2.8 nM
10β-(2-Hydroxyethyl)-deoxoartemisinin bis-ester (1,2)-dimer [PV30]	2.6	–	–
C[C@H]1[C@@H](CCOCc2ccccc2COCC[C@H]2O[C@@H]3O[C@]4(C)CC[C@H]5[C@H](C)CC[C@@H]([C@H]2C)[C@@]35OO4)O[C@@H]2O[C@]3(C)CC[C@H]4[C@H](C)CC[C@@H]1[C@@]24OO3 [PV45]	2.7	–	–
